Activity calls are given as the source filed them. The calls are words filed in the database; no cut-off is given here.
Key:
Trypanosoma cruzi [1] = assay: Antitrypanosomal activity against Trypanosoma cruzi Dm28c epimastigotes at 10 to 100 uM measured after 24 hrs by MTT assay; type: functional
[2] = Selectivity index, ratio of IC50 for cytotoxicity against mouse RAW264.7 cells to IC50 for antitrypanosomal activity against epimastigote stage of Trypanosoma cruzi Dm28c; type: toxicity, cell-based; conditions: read-out: Ratio IC50
Trypanosoma cruzi [3] = assay: Induction of free radical species generation in microsomes of Trypanosoma cruzi Dm28c epimastigotes spin adduct formation at 5 mM measured after 10 mins using DMPO spin trap by ESR spectroscopic method; type: functional
[4] = Oxidation potential of compound against Ag/Agcl reference electrode at 1 mM by cyclic voltametry; type: physicochemical; conditions: 1000 µM
Trypanosoma cruzi [5] = assay: Potency index, ratio of nifurtimox IC50 to compound IC50 for Trypanosoma cruzi Dm28c epimastigotes; type: functional
Trypanosoma cruzi [6] = assay: Potency index, ratio of nifurtimox IC50 to compound IC50 for Trypanosoma cruzi Dm28c trypamastigotes infected in African green monkey Vero cells; type: functional
[7] = Antioxidant activity assessed as AAPH-induced peroxyl radical scavenging activity by measuring ORAC-FL index at 0.5 to 2.5 uM preincubated for 15 mins followed by AAPH addition measured every 1 min for 120 mins by fluorescence assay relative to trolox; type: functional
[8] = Cytotoxicity against mouse RAW264.7 cells measured after 4 hrs by MTT assay; type: toxicity
Trypanosoma cruzi [9] = assay: Antitrypanosomal activity against trypomastigote stage of Trypanosoma cruzi Dm28c infected in African green monkey Vero cells assessed as growth inhibition incubated for 5 to 7 days post infection measured after 24 hrs by MTT assay; type: functional, cell-based
Trypanosoma cruzi [10] = assay: Antitrypanosomal activity against trypomastigote stage of Trypanosoma cruzi Dm28c infected in African green monkey Vero cells assessed as growth inhibition at 20 to 100 uM incubated for 5 to 7 days post infection measured after 24 hrs by MTT assay; type: functional, cell-based
[11] = Selectivity index, ratio of IC50 for cytotoxicity against mouse RAW264.7 cells to IC50 for antitrypanosomal activity against trypomastigote stage of Trypanosoma cruzi Dm28c; type: toxicity, cell-based; conditions: read-out: Ratio IC50
Trypanosoma cruzi [12] = assay: Antitrypanosomal activity against Trypanosoma cruzi Dm28c epimastigotes after 24 hrs by MTT assay; type: functional
[13] = Induction of free radical species generation assessed as compound-PBN adduct formation at 1 mM by ESR spectroscopic method; type: physicochemical; conditions: 1000 µM
[14] = Antioxidant activity assessed as photolysis-induced hydroxyl radical scavenging activity at 1 mM measured after 2 mins using DMPO spin trap by ESR spectroscopic method relative to control; type: functional
[15] = Oxidation potential of compound at group 1 hydroxyl against Ag/Agcl reference electrode at 1 mM by cyclic voltametry; type: physicochemical; conditions: 1000 µM
[16] = Oxidation potential of compound at group 2 hydroxyl against Ag/Agcl reference electrode at 1 mM by cyclic voltametry

Row | SMILES | Activity [4] [V] | IC50 (Trypanosoma cruzi [9]) [µM] | IC50 (Trypanosoma cruzi [12]) [µM] | Activity [13] | Activity [15] [V] | Activity (Trypanosoma cruzi [1]) | selectivity ratio [2] | Activity (Trypanosoma cruzi [3]) | Ratio IC50 (Trypanosoma cruzi [5]) | Ratio IC50 (Trypanosoma cruzi [6]) | Activity [7] | IC50 at 4 h [8] [µM] | Activity (Trypanosoma cruzi [10]) | selectivity ratio [11] | Activity [14] [%] | Activity [16] [V]
1 | O=c1oc2ccc(O)cc2cc1-c1ccccc1O | 0.79 |  | > 100 | Active |  | Active |  |  |  |  | 5.3 | > 100 |  |  |  | 
2 | O=c1oc2cc(O)cc(O)c2cc1-c1cccc(O)c1 |  |  | > 100 | Active |  | Active |  |  |  |  | 1.95 | > 100 |  |  |  | 
3 | O=c1oc2ccc(O)cc2cc1-c1cccc(O)c1 |  |  | > 100 | Active | 0.8 | Active |  |  |  |  | 5.47 | > 100 |  |  | 100 | 1.17
4 | O=c1oc2c(O)cccc2cc1-c1ccc(O)c(O)c1 | 0.81 |  | 84.3 |  |  | Active | 1.37 |  |  |  | 4.59 | 115 |  |  |  | 
5 | O=c1oc2c(O)cccc2cc1-c1cccc(O)c1 | 0.74 |  | > 100 |  |  | Active |  |  |  |  | 3.12 | > 100 |  |  |  | 

Molecules with a lower IC50 (Trypanosoma cruzi [12]), results first:

Row | Activity [4] [V] | IC50 (Trypanosoma cruzi [9]) [µM] | IC50 (Trypanosoma cruzi [12]) [µM] | Activity [13] | Activity [15] [V] | SMILES | Activity (Trypanosoma cruzi [1]) | selectivity ratio [2] | Activity (Trypanosoma cruzi [3]) | Ratio IC50 (Trypanosoma cruzi [5]) | Ratio IC50 (Trypanosoma cruzi [6]) | Activity [7] | IC50 at 4 h [8] [µM] | Activity (Trypanosoma cruzi [10]) | selectivity ratio [11] | Activity [14] [%] | Activity [16] [V]
6 | 0.78 | 39.7 | 1.31 |  |  | O=c1oc2c(O)c(O)ccc2cc1-c1ccccc1O | Active | 52.6 | Active | 10 - 13 | <=13 | 2.23 | 68.9 | Active | 1.73 |  | 
7 |  |  | 17.4 |  |  | CC1CS(=O)(=O)CCN1/N=C/c1ccc([N+](=O)[O-])o1 (configuration not stated) [NIFURTIMOX] |  | 15.1 |  |  |  |  | 263 |  | 26.3 |  | 
8 | 0.81 |  | 8.9 |  |  | O=c1oc2c(O)c(O)ccc2cc1-c1ccccc1 | Active | 2.93 | Active |  |  | 1.11 | 26.1 |  |  |  | 
9 |  |  | 47 |  | 0.64 | O=c1oc2c(O)c(O)ccc2cc1-c1ccc(O)c(O)c1 | Active | 2.07 |  |  |  | 5.38 | 97.5 |  |  | 24.3 | 0.79
10 | 1.16 |  | 6.15 | Active |  | O=c1oc2cc(O)cc(O)c2cc1-c1ccccc1 | Active | > 16.3 | Active |  |  | 1.81 | > 100 |  |  | 100 | 
11 | 0.81 |  | 28.6 |  |  | O=c1oc2c(O)c(O)ccc2cc1-c1cccc(O)c1 | Active | 13.9 |  |  |  | 2.95 | 398 |  |  | 26.1 | 
